Our source for the MIC and Selectivity Index values is ChEMBL document CHEMBL4261591, “Antimicrobial 1,3,4-trisubstituted-1,2,3-triazolium salts” (2018).

What all share (type): functional
Test [1] deals with Escherichia coli. The test is described as follows: microbe, parasite or virus in culture. The note with it: ATCC 25922, 24 h.
Description: Antibacterial activity against Escherichia coli ATCC 25922 after 24 hrs by CLSI broth microdilution assay
Test [2] has as its system Klebsiella aerogenes. The test is described as follows: microbe, parasite or virus in culture. Conditions: ATCC 13048, 24 h.
Description: Antibacterial activity against Enterobacter aerogenes ATCC 13048 after 24 hrs by CLSI broth microdilution assay
Test [3] deals with Candida albicans. In words: microbe, parasite or virus in culture. Conditions: ATCC 90028, 24 h.
Description: Antifungal activity against Candida albicans ATCC 90028 after 24 hrs by CLSI broth microdilution assay
Test [4] concerns Saccharomyces cerevisiae. The test is described as follows: microbe, parasite or virus in culture. The note with it: ATCC 9763, 24 h.
Description: Antifungal activity against Saccharomyces cerevisiae ATCC 9763 after 24 hrs by CLSI broth microdilution assay
Test [5] has as its system Bacillus subtilis. The test is described as follows: microbe, parasite or virus in culture. The note with it: ATCC 6051, 24 h.
Description: Antibacterial activity against Bacillus subtilis ATCC 6051 after 24 hrs by CLSI broth microdilution assay
The subject of test [6] is Staphylococcus epidermidis. In words: microbe, parasite or virus in culture. The note with it: ATCC 14990, 24 h.
Description: Antibacterial activity against Staphylococcus epidermidis ATCC 14990 after 24 hrs by CLSI broth microdilution assay
The nature of test [7]: Selectivity index, ratio of MIC for Candida albicans ATCC 90028 to MIC for Staphylococcus epidermidis ATCC 14990.
A short description of test [8]: Selectivity index, ratio of MIC for Escherichia coli ATCC 25922 to MIC for Bacillus subtilis ATCC 6051.
The nature of test [9]: Selectivity index, ratio of MIC for Candida albicans ATCC 90028 to MIC for Bacillus subtilis ATCC 6051.
A short description of test [10]: Selectivity index, ratio of MIC for Escherichia coli ATCC 25922 to MIC for Staphylococcus epidermidis ATCC 14990.
Test [11] can be described thus: Selectivity index, ratio of MIC for Enterobacter aerogenes ATCC 13048 to MIC for Bacillus subtilis ATCC 6051.
A short description of test [12]: Selectivity index, ratio of MIC for Saccharomyces cerevisiae ATCC 9763 to MIC for Staphylococcus epidermidis ATCC 14990.
Test [13] in a line: Selectivity index, ratio of MIC for Saccharomyces cerevisiae ATCC 9763 to MIC for Bacillus subtilis ATCC 6051.
The nature of test [14]: Selectivity index, ratio of MIC for Enterobacter aerogenes ATCC 13048 to MIC for Staphylococcus epidermidis ATCC 14990.

With `CCCCCCCCCCCCc1cn(Cc2ccccc2)n[n+]1Cc1ccc(C(C)(C)C)cc1`, the MIC in test [1] came to 250 µM; in test [2], 250 µM; in test [3], 8 µM; in test [4], 16 µM; in test [5], 2 µM; in [6] it was 2 µM.

With `Cc1ccc(-[n+]2nn(Cc3ccc(C(C)(C)C)cc3)cc2-c2ccccc2)cc1`, the MIC in [1] is greater than 250 µM; in test [2], greater than 250 µM; in [3] it was greater than 250 µM; in test [4], greater than 250 µM; in [5] it was 16 µM; in test [6], 16 µM.

In the case of `Cc1ccc(-n2cc(-c3ccccc3)[n+](Cc3ccc(C(C)(C)C)cc3)n2)cc1`, the MIC in test [1] is greater than 250 µM; in [2], greater than 250 µM; in test [3], greater than 250 µM; in [4], greater than 250 µM; in test [5] it was 8 µM; in test [6], 8 µM.

As to `CCCCCCCCCCCCc1cn(-c2ccc(C)cc2)n[n+]1Cc1ccc(C(C)(C)C)cc1`, the MIC turned out to be 250 µM in test [1]; 250 µM in test [2]; 4 µM in test [3]; 4 µM in test [4]; 2 µM in test [5]; 2 µM in test [6].

As to `CCCCc1cn(Cc2ccccc2)n[n+]1Cc1ccccc1`, the MIC in [1], in test [2], in test [3], in test [4], in test [5] and in [6] was greater than 250 µM each time.

Take `Cc1ccc(-n2cc(-c3ccccc3)[n+](Cc3ccccc3)n2)cc1`: the MIC in test [1], in [2], in test [3], in [4], in test [5] and in test [6] was greater than 250 µM throughout.

For `CCCCc1cn(Cc2ccccc2)n[n+]1Cc1ccc(C(C)(C)C)cc1`, the MIC in [1] was greater than 250 µM; in test [2], greater than 250 µM; in test [3] it was 250 µM; in test [4], 250 µM; in test [5], 8 µM; in [6], 8 µM.

For the compound `CCCCc1cn(-c2ccc(C)cc2)n[n+]1Cc1ccc(C(C)(C)C)cc1`, the Selectivity Index in [7], in test [8], in test [9], in test [10], in test [11] and in test [12] was greater than 50 each time. In addition, the Selectivity Index in [13] and in [14] was greater than 50 throughout. Moreover, the MIC in [1] was 250 µM; in [2] it was greater than 250 µM; in test [3], 250 µM; in test [4] it was 250 µM; in [5], 4 µM; in test [6] it was 4 µM.

Regarding `Cc1ccc(-[n+]2nn(Cc3ccccc3)cc2-c2ccccc2)cc1`, the MIC in test [1], in test [2], in test [3], in [4], in [5] and in test [6] was greater than 250 µM each time.

As for `CCCCCCCCc1cn(-c2ccc(C)cc2)n[n+]1Cc1ccc(C(C)(C)C)cc1`, the MIC turned out to be 16 µM in [1]; 16 µM in test [2]; 4 µM in test [3]; 8 µM in [4]; 2 µM in [5]; 2 µM in test [6].

Consider `CCCCCCCCc1cn(-c2ccc(C)cc2)n[n+]1Cc1ccccc1`, for which the Selectivity Index in [7], in test [8], in [9], in test [10], in [11] and in test [12] was greater than 50 each time. In addition, the Selectivity Index in test [13] and in test [14] was greater than 50 throughout. The MIC was greater than 250 µM in test [1]; greater than 250 µM in [2]; 250 µM in [3]; 250 µM in [4]; 4 µM in test [5]; 8 µM in test [6].

`CCCCCCCCc1cn(Cc2ccccc2)n[n+]1Cc1ccc(C(C)(C)C)cc1`: the MIC is 31 µM in test [1]; 31 µM in test [2]; 8 µM in [3]; 16 µM in test [4]; 1 µM in test [5]; 2 µM in test [6].

For the compound `CCCCCCCCCCCCc1cn(Cc2ccccc2)n[n+]1Cc1ccccc1`, the MIC in test [1] came out at 16 µM; in [2], 16 µM; in test [3], 16 µM; in test [4], 16 µM; in test [5] it was 2 µM; in test [6] it was 4 µM.

Consider `CCCCc1cn(-c2ccc(C)cc2)n[n+]1Cc1ccccc1`, for which the MIC in test [1], in test [2], in test [3], in [4], in test [5] and in test [6] was greater than 250 µM throughout.

For `CCCCCCCCCCCCc1cn(-c2ccc(C)cc2)n[n+]1Cc1ccccc1`, the MIC in [1] came to 8 µM; in test [2], 8 µM; in test [3] it was 8 µM; in [4], 8 µM; in [5], 1 µM; in test [6], 2 µM.

For `CCCCCCCCc1cn(Cc2ccccc2)n[n+]1Cc1ccccc1`, the MIC in [1] was greater than 250 µM; in [2], greater than 250 µM; in [3], 250 µM; in test [4], 250 µM; in test [5] it was 8 µM; in [6], 8 µM.
